A word on the EC50: it is the concentration that produces a half-maximal response. One may read the remaining activity as the signal under treatment as a percentage of the control signal.

The values below come from US20240124465A1, “MOLECULES AND METHODS RELATED TO TREATMENT OF DISORDERS ASSOCIATED WITH JAK-2 SIGNALING DYSFUNCTION” (ST. JUDE CHILDREN'S RESEARCH HOSPITAL, priority 2020, published 2024).

Common to all, as to assay type: cell-based
Experiment [1] concerns JAK2. The experiment is described as follows: Western blot assay, JAK2 protein degradation. The settings on record: MHH-CALL-4 cells, vehicle control = 100%. As to the method: (§1) Western blot assay: MHH-CALL-4 Cells were washed twice with ice-cold PBS and lysed in RIPA lysis buffer (Sigma) freshly supplemented with Halt™ Protease Inhibitor Cocktail (ThermoFisher) for 15 minutes on ice. The cell pellet was removed by centrifugation at 13,000 g at 4° C. for 15 minutes. Protein concentration was measured by BCA assay (Thermo Fisher Scientific). Proteins were denatured in NuPAGE LDS 4× sample buffer supplemented with reducing agents (Invitrogen). Typically, 10-20 μg of total protein was loaded per lane on a 4%-12% NUPAGE Bis-Tris gradient gel (Invitrogen) and analyzed by standard immunoblotting and imaged using Li—COR Odyssey CLx (LI-COR Biotechnology, Lincoln, NE). To access the protein degradation, the signal of target protein was normalized by the signal of ACBT and the signal of vehicle control was set as 100%. Primary antibodies used were: JAK1 (Cell Signaling #3332S), JAK2 (#3230S), JAK3 (#8827S), TYK2 (#9312S), GSPT1 (#14980S), CRBN (#71810S), IKZF1 (Santa Cruz Biotechnology, SC-398265) and ACBT (Santa Cruz Biotechnology, SC-47778).

The subject of experiment [2] is MHH-CALL-4 cells. In words: Cytotoxicity assay (resazurin, 72 hours). More on the design: AUC: unit not given beside the values. As to conditions: for EC50: MHHCALL4, resazurin; for AUC: area under the dose-response curve. As to the method:
Cytotoxicity assay: MHH-CALL-4 cells were maintained in RPMI1640 medium (Invitrogen) supplemented with 10% FBS (Hyclone), Penicillin/Streptomycin (100 units/mL) and Glutamine (100 μM). 2×10^5 cells were seeded in 100 μl medium/well in 96 well assay plates (Corning 3603). Assays were performed in triplicate; compounds to be screened were added to assay plates from DMSO stock solutions by pin transfer using 50SS pins (V&P Scientific). The assay plates incubated at 37° C. in 5% CO2 for 72 hours. Cells were then incubated for four hours with resazurin (Sigma) solution and read on a Synergy HT plate reader (Biotek, Winooski, VT). High-throughput assay data was analyzed using our in-house Robust Interpretation of Screening Experiments (RISE) application written in Pipeline Pilot (Biovia, v. 17.2.0) and the R program (R Core Team, 2013). All the AUC (area under the dose-response curve) per compound calculated from its dose response curve by RISE protocol. Selected data were plotted and analyzed by GraphPad Prism software v7 using non-linear regression curve fitting.
For orientation: The colour change of resazurin is a common sign of viable cells or microbes.

The target of experiment [3] is T1, GSPT1 (Homo sapiens, UniProt P15170).
T1 construct: endogenous in cells; host or cells: MHH-CALL-4
In words: Western blot assay, GSPT1 neosubstrate degradation. As to conditions: MHH-CALL-4 cells, vehicle control = 100%; for remaining activity at 0.1 µM: MHHCALL4, 100 nM, 24 h. As to the method: as §1
In general terms: Immunoblotting shows a protein as a band on a membrane.

The structures appear in SMILES notation.

T1 sequence (P15170 whole entry): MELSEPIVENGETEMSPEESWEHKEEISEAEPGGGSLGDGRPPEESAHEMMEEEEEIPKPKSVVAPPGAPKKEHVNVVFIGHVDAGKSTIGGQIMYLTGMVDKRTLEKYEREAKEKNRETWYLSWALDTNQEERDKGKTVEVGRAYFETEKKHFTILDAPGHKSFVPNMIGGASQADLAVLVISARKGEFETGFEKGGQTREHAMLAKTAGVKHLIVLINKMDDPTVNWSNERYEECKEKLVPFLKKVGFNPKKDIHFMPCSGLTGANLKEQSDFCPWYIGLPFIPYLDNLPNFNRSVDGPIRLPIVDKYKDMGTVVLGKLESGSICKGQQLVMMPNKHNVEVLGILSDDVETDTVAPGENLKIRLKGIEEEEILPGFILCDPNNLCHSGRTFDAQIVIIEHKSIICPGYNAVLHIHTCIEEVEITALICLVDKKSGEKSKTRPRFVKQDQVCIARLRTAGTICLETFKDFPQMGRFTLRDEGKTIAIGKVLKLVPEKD

On to `CCS(=O)(=O)N1CC(CC#N)(n2cc(-c3nc(Nc4ccc(C(=O)N5CCN(c6ccc(C7CCC(=O)NC7=O)cc6)CC5)cc4)nc4[nH]ccc34)cn2)C1` (stereo not shown) [Compound 2], for which the “Target Protein Degradation (% remaining at 100 nM, 24 h) JAK2” value in experiment [1] is reported as “None”. For the same compound, in experiment [2], the EC50 was 1 nM and the AUC came out at 167. Also, the “Neosubstrate Degradation (% remaining at 100 nM, 24 h) GSPT1” value in experiment [3] is given as “None”.
For `CCS(=O)(=O)N1CC(CC#N)(n2cc(-c3nc(Nc4ccc(C(=O)NCCOCCOc5cccc(C6CCC(=O)NC6=O)c5)cc4)nc4[nH]ccc34)cn2)C1` (stereo not shown) [Compound 9], in experiment [2], the EC50 was 873 nM and the AUC came out at 132.
The like results for `CCS(=O)(=O)N1CC(CC#N)(n2cc(-c3nc(Nc4ccc(C(=O)NCCOCCOCCOc5ccc(C6CCC(=O)NC6=O)cc5)cc4)nc4[nH]ccc34)cn2)C1` (stereo not shown) [Compound 12] were, in that order, greater than 5000 nM and 116.
With `CCS(=O)(=O)N1CC(CC#N)(n2cc(-c3nc(Nc4ccc(C(=O)NCCCCNc5ccc(C6CCC(=O)NC6=O)cc5)cc4)nc4[nH]ccc34)cn2)C1` (stereo not shown) [Compound 13], in experiment [2], the EC50 is greater than 5000 nM and the AUC is on record as 93.
For the compound `CCS(=O)(=O)N1CC(CC#N)(n2cc(-c3nc(Nc4ccc(C(=O)NCCCCNC(=O)COc5ccc(C6CCC(=O)NC6=O)cc5)cc4)nc4[nH]ccc34)cn2)C1` (stereo not shown) [Compound 15], the “Target Protein Degradation (% remaining at 100 nM, 24 h) JAK2” value in experiment [1] came to 29 % remaining. Also, in experiment [2], the 50% effective concentration (EC50) is greater than 5500 nM and the AUC was found to be 156. Also, the remaining activity at 0.1 µM in experiment [3] came to 78%.
With `CCS(=O)(=O)N1CC(CC#N)(n2cc(-c3nc(Nc4ccc(C(=O)NCCCCCNC(=O)COc5ccc(C6CCC(=O)NC6=O)cc5)cc4)nc4[nH]ccc34)cn2)C1` (stereo not shown) [Compound 16], in experiment [2], the EC50 was greater than 5700 nM and the AUC was 136.
Turning to `CCS(=O)(=O)C1CC(CC#N)(n2cc(-c3nc(Nc4ccc(C(=O)N5CCN(c6ccc7c(c6)C(=O)N(C6CCC(=O)NC6=O)C7=O)CC5)cc4)nc4[nH]ccc34)cn2)C1` (stereo not shown) [Compound 21], in experiment [1], the “Target Protein Degradation (% remaining at 100 nM, 24 h) JAK2” value is listed as 53 % remaining. In experiment [2], the EC50 came out at 13.9 nM and the AUC worked out at 118.
`CCCn1cc(-c2nc(Nc3ccc(C(=O)NCCN4CCN(c5cccc6c5C(=O)N(C5CCC(=O)NC5=O)C6=O)CC4)cc3)nc3[nH]ccc23)cn1` (stereo not shown) [Compound 24]: in experiment [1], the “Target Protein Degradation (% remaining at 100 nM, 24 h) JAK2” value was found to be 93 % remaining. Besides, in experiment [2], the EC50 stood at 83.6 nM and the AUC came out at 208. Moreover, in experiment [3], the remaining activity at 0.1 µM was 0%.
For `CCCn1cc(-c2nc(Nc3ccc(C(=O)NCCCN4CCN(c5cccc6c5C(=O)C(C5CCC(=O)NC5=O)C6=O)CC4)cc3)nc3[nH]ccc23)cn1` (stereo not shown) [Compound 25], the “Target Protein Degradation (% remaining at 100 nM, 24 h) JAK2” value in experiment [1] was “None”. Further, in experiment [2], the EC50 came to 169 nM and the AUC came out at 250. In addition, in experiment [3], the “Neosubstrate Degradation (% remaining at 100 nM, 24 h) GSPT1” value is “Medium”.
Consider `CCCn1cc(-c2nc(Nc3ccc(C(=O)N4CCN(c5cccc6c5C(=O)N(C5CCC(=O)NC5=O)C6=O)CC4)cc3)nc3[nH]ccc23)cn1` (stereo not shown) [Compound 26], for which, in experiment [1], the “Target Protein Degradation (% remaining at 100 nM, 24 h) JAK2” value is “None”. For the same compound, in experiment [2], the EC50 was 297 nM and the AUC is 217. In experiment [3], the “Neosubstrate Degradation (% remaining at 100 nM, 24 h) GSPT1” value is “Medium”.
In the case of `CCS(=O)(=O)N1CC(CC#N)(n2cc(-c3nc(Nc4ccc(C(=O)NCCCN5CC6CC5CN6c5ccc(C6CCC(=O)NC6=O)cc5)cc4)nc4[nH]ccc34)cn2)C1` (stereo not shown) [Compound 48, 4-((4-(1-(3-(cyanomethyl)-1-(ethylsulfonyl)azetidin-3-yl)-1H-pyrazol-4-yl)-7H-pyrrolo[2,3-d]pyrimidin-2-yl)amino)-N-(3-(5-(4-(2,6-dioxopiperidin-3-yl)phenyl)-2,5-diazabicyclo[2.2.1]heptan-2-yl)propyl)benzamide], the “Target Protein Degradation (% remaining at 100 nM, 24 h) JAK2” value in experiment [1] turned out to be 76 % remaining. Also, in experiment [2], the EC50 stood at 27.3 nM and the AUC was found to be 80.
`CCS(=O)(=O)N1CC(CC#N)(n2cc(-c3nc(Nc4ccc(C(=O)NCCCN5CCC6(CC5)CCN(c5ccc(C7CCC(=O)NC7=O)cc5)CC6)cc4)nc4[nH]ccc34)cn2)C1` (stereo not shown) [Compound 51]: the “Target Protein Degradation (% remaining at 100 nM, 24 h) JAK2” value in experiment [1] turned out to be 67 % remaining. In experiment [2], the half-maximal effective concentration (EC50) is 226 nM and the AUC is given as 105.
Consider `CCS(=O)(=O)N1CC(CC#N)(n2cc(-c3nc(Nc4ccc(C(=O)N5CC6(C5)CN(c5ccc(C7CCC(=O)NC7=O)cc5)C6)cc4)nc4[nH]ccc34)cn2)C1` (stereo not shown) [Compound 53, 2-(3-(4-(2-((4-(6-(4-(2,6-dioxopiperidin-3-yl)phenyl)-2,6-diazaspiro[3.3]heptane-2-carbonyl)phenyl)amino)-7H-pyrrolo[2,3-d]pyrimidin-4-yl)-1H-pyrazol-1-yl)-1-(ethylsulfonyl)azetidin-3-yl)acetonitrile], for which, in experiment [1], the “Target Protein Degradation (% remaining at 100 nM, 24 h) JAK2” value is on record as 36 % remaining. For the same compound, in experiment [2], the EC50 came out at 1.7 nM and the AUC stood at 142. Moreover, in experiment [3], the remaining activity at 0.1 µM stood at 102%.
The like results for `CCS(=O)(=O)N1CC(CC#N)(n2cc(-c3nc(Nc4ccc(C(=O)NCCCN5CC6CCC5CN6c5ccc(C6CCC(=O)NC6=O)cc5)cc4)nc4[nH]ccc34)cn2)C1` (stereo not shown) [Compound 54, 4-((4-(1-(3-(cyanomethyl)-1-(ethylsulfonyl)azetidin-3-yl)-1H-pyrazol-4-yl)-7H-pyrrolo[2,3-d]pyrimidin-2-yl)amino)-N-(3-(5-(4-(2,6-dioxopiperidin-3-yl)phenyl)-2,5-diazabicyclo[2.2.2]octan-2-yl)propyl)benzamide] were, in that order, 62 % remaining, 6.3 nM, 67 and 125%.
As for `CCS(=O)(=O)N1CC(CC#N)(n2cc(-c3nc(Nc4ccc(C(=O)NCCCN5CCC6(CCN(c7ccc(C8CCC(=O)NC8=O)cc7)CC6)C5)cc4)nc4[nH]ccc34)cn2)C1` (stereo not shown) [Compound 56, 4-((4-(1-(3-(cyanomethyl)-1-(ethylsulfonyl)azetidin-3-yl)-1H-pyrazol-4-yl)-7H-pyrrolo[2,3-d]pyrimidin-2-yl)amino)-N-(3-(8-(4-(2,6-dioxopiperidin-3-yl)phenyl)-2,8-diazaspiro[4.5]decan-2-yl)propyl)benzamide], the “Target Protein Degradation (% remaining at 100 nM, 24 h) JAK2” value in experiment [1] came out at 58 % remaining. Further, in experiment [2], the EC50 came to 2650 nM and the AUC amounted to 172. Besides, the remaining activity at 0.1 µM in experiment [3] came out at 102%.
